Source: the NIST ThermoML archive (doi:10.1021/je500050p)
Numbers after ± are expanded uncertainties.

Experiment: activity coefficient (dimensionless); of the first substance listed, at infinite dilution; xn = mol fraction of the nth substance listed
Conditions: 101 kPa, Liquid, Chromatography, x1 = 0

| activity coefficient (353.15 K) | activity coefficient (373.15 K) | SMILES | activity coefficient (323.15 K) | activity coefficient (333.15 K) | activity coefficient (343.15 K) |
| --- | --- | --- | --- | --- | --- |
| – | – | CCOCC [diethyl ether] + CC1(C)[C@@H]2CC[C@@]1(CS(=O)(=O)[O-])C(=O)C2.CCCCCCCCCCCCCC[N+](CCCCCC)(CCCCCC)CCCCCC | 0.73 ± 0.05 | 0.96 ± 0.06 | 1.14 ± 0.07 |
| – | – | CCCC(C)=O [pentan-2-one] + CC1(C)[C@@H]2CC[C@@]1(CS(=O)(=O)[O-])C(=O)C2.CCCCCCCCCCCCCC[N+](CCCCCC)(CCCCCC)CCCCCC | 0.52 ± 0.04 | 0.78 ± 0.05 | 1.07 ± 0.07 |
| – | – | ClCCl [dichloromethane] + CC1(C)[C@@H]2CC[C@@]1(CS(=O)(=O)[O-])C(=O)C2.CCCCCCCCCCCCCC[N+](CCCCCC)(CCCCCC)CCCCCC | 0.09 ± 0.03 | 0.15 ± 0.03 | 0.22 ± 0.03 |
| 0.44 ± 0.04 | 0.43 ± 0.04 | CC#N [acetonitrile] + CCCCCCCCCCCCCC[N+](CCCCCC)(CCCCCC)CCCCCC.C[C@H](O)C(=O)[O-] | 0.45 ± 0.04 | – | – |
| – | – | CCO [ethanol] + CC1(C)[C@@H]2CC[C@@]1(CS(=O)(=O)[O-])C(=O)C2.CCCCCCCCCCCCCC[N+](CCCCCC)(CCCCCC)CCCCCC | 0.1 | 0.17 ± 0.03 | 0.26 ± 0.03 |
| 1.08 ± 0.07 | 1.06 ± 0.07 | CC(C)OC(C)C [diisopropyl ether] + CCCCCCCCCCCCCC[N+](CCCCCC)(CCCCCC)CCCCCC.C[C@H](O)C(=O)[O-] | 1.13 ± 0.07 | – | – |
| 0.38 ± 0.03 | 0.39 ± 0.03 | c1ccccc1 [benzene] + CCCCCCCCCCCCCC[N+](CCCCCC)(CCCCCC)CCCCCC.C[C@H](O)C(=O)[O-] | 0.38 ± 0.03 | – | – |
| – | – | C#CCCCC [1-hexyne] + CC1(C)[C@@H]2CC[C@@]1(CS(=O)(=O)[O-])C(=O)C2.CCCCCCCCCCCCCC[N+](CCCCCC)(CCCCCC)CCCCCC | 0.46 ± 0.04 | 0.69 ± 0.05 | 0.95 ± 0.06 |
| – | – | Cc1cccc(C)c1 [1,3-dimethylbenzene] + CC1(C)[C@@H]2CC[C@@]1(CS(=O)(=O)[O-])C(=O)C2.CCCCCCCCCCCCCC[N+](CCCCCC)(CCCCCC)CCCCCC | 0.52 ± 0.04 | 0.81 ± 0.05 | 1.16 ± 0.07 |
| 0.03 | 0.03 | CO [methanol] + CCCCCCCCCCCCCC[N+](CCCCCC)(CCCCCC)CCCCCC.C[C@H](O)C(=O)[O-] | 0.03 | – | – |
| – | – | Cc1ccc(C)cc1 [1,4-dimethylbenzene] + CC1(C)[C@@H]2CC[C@@]1(CS(=O)(=O)[O-])C(=O)C2.CCCCCCCCCCCCCC[N+](CCCCCC)(CCCCCC)CCCCCC | 0.51 ± 0.04 | 0.8 ± 0.1 | 1.17 ± 0.07 |
| – | – | ClC(Cl)(Cl)Cl [tetrachloromethane] + CC1(C)[C@@H]2CC[C@@]1(CS(=O)(=O)[O-])C(=O)C2.CCCCCCCCCCCCCC[N+](CCCCCC)(CCCCCC)CCCCCC | 0.35 ± 0.03 | 0.51 ± 0.04 | 0.75 ± 0.05 |
| – | – | CC1CCCC1 [methylcyclopentane] + CC1(C)[C@@H]2CC[C@@]1(CS(=O)(=O)[O-])C(=O)C2.CCCCCCCCCCCCCC[N+](CCCCCC)(CCCCCC)CCCCCC | 0.75 ± 0.05 | 1 | 1.33 ± 0.09 |
| – | – | CCC(=O)CC [pentan-3-one] + CC1(C)[C@@H]2CC[C@@]1(CS(=O)(=O)[O-])C(=O)C2.CCCCCCCCCCCCCC[N+](CCCCCC)(CCCCCC)CCCCCC | 0.47 ± 0.04 | 0.71 ± 0.05 | 1.03 ± 0.06 |
| 0.59 ± 0.04 | 0.59 ± 0.04 | CCCC(C)=O [pentan-2-one] + CCCCCCCCCCCCCC[N+](CCCCCC)(CCCCCC)CCCCCC.C[C@H](O)C(=O)[O-] | 0.6 ± 0.1 | – | – |
| – | – | c1ccncc1 [pyridine] + CC1(C)[C@@H]2CC[C@@]1(CS(=O)(=O)[O-])C(=O)C2.CCCCCCCCCCCCCC[N+](CCCCCC)(CCCCCC)CCCCCC | 0.32 ± 0.03 | 0.49 ± 0.04 | 0.68 ± 0.05 |
| 1.31 ± 0.09 | 1.29 ± 0.08 | CCCCCCCC [octane] + CCCCCCCCCCCCCC[N+](CCCCCC)(CCCCCC)CCCCCC.C[C@H](O)C(=O)[O-] | 1.37 ± 0.09 | – | – |

| activity coefficient (353.15 K) | activity coefficient (373.15 K) | SMILES | activity coefficient (323.15 K) | activity coefficient (333.15 K) | activity coefficient (343.15 K) |
| --- | --- | --- | --- | --- | --- |
| – | – | c1ccsc1 [thiophene] + CC1(C)[C@@H]2CC[C@@]1(CS(=O)(=O)[O-])C(=O)C2.CCCCCCCCCCCCCC[N+](CCCCCC)(CCCCCC)CCCCCC | 0.28 ± 0.03 | 0.42 ± 0.04 | 0.56 ± 0.04 |
| 1.81 ± 0.12 | 1.75 ± 0.12 | CCCCCCCCCCC [undecane] + CCCCCCCCCCCCCC[N+](CCCCCC)(CCCCCC)CCCCCC.C[C@H](O)C(=O)[O-] | 1.67 ± 0.11 | – | – |
| – | – | C=CCCCC [hex-1-ene] + CC1(C)[C@@H]2CC[C@@]1(CS(=O)(=O)[O-])C(=O)C2.CCCCCCCCCCCCCC[N+](CCCCCC)(CCCCCC)CCCCCC | 0.85 ± 0.05 | 1.13 ± 0.07 | 1.75 ± 0.12 |
| – | – | Cc1ccccc1 [toluene] + CC1(C)[C@@H]2CC[C@@]1(CS(=O)(=O)[O-])C(=O)C2.CCCCCCCCCCCCCC[N+](CCCCCC)(CCCCCC)CCCCCC | 0.41 ± 0.03 | 0.63 ± 0.04 | 0.88 ± 0.06 |
| – | – | C1CCCCC1 [cyclohexane] + CC1(C)[C@@H]2CC[C@@]1(CS(=O)(=O)[O-])C(=O)C2.CCCCCCCCCCCCCC[N+](CCCCCC)(CCCCCC)CCCCCC | 0.69 ± 0.05 | 0.95 ± 0.06 | 1.24 ± 0.08 |
| 1.63 ± 0.11 | 1.59 ± 0.11 | CCCCCCCCCC [decane] + CCCCCCCCCCCCCC[N+](CCCCCC)(CCCCCC)CCCCCC.C[C@H](O)C(=O)[O-] | 1.67 ± 0.11 | – | – |
| – | – | CC(C)O [propan-2-ol] + CC1(C)[C@@H]2CC[C@@]1(CS(=O)(=O)[O-])C(=O)C2.CCCCCCCCCCCCCC[N+](CCCCCC)(CCCCCC)CCCCCC | 0.12 ± 0.03 | 0.2 | 0.32 ± 0.03 |
| 1.59 ± 0.11 | 1.51 ± 0.1 | CCCCCCCCC [nonane] + CCCCCCCCCCCCCC[N+](CCCCCC)(CCCCCC)CCCCCC.C[C@H](O)C(=O)[O-] | 1.67 ± 0.11 | – | – |
| 0.08 ± 0.03 | 0.1 | ClCCl [dichloromethane] + CCCCCCCCCCCCCC[N+](CCCCCC)(CCCCCC)CCCCCC.C[C@H](O)C(=O)[O-] | 0.06 | – | – |
| 0.03 | 0.04 | CCO [ethanol] + CCCCCCCCCCCCCC[N+](CCCCCC)(CCCCCC)CCCCCC.C[C@H](O)C(=O)[O-] | 0.03 | – | – |
| – | – | Cc1ccccc1C [1,2-dimethylbenzene] + CC1(C)[C@@H]2CC[C@@]1(CS(=O)(=O)[O-])C(=O)C2.CCCCCCCCCCCCCC[N+](CCCCCC)(CCCCCC)CCCCCC | 0.49 ± 0.04 | 0.77 ± 0.05 | 1.13 ± 0.07 |
| 1.17 ± 0.07 | 1.16 ± 0.07 | CCCCCCC [heptane] + CCCCCCCCCCCCCC[N+](CCCCCC)(CCCCCC)CCCCCC.C[C@H](O)C(=O)[O-] | 1.22 ± 0.08 | – | – |
| – | – | CC(C)OC(C)C [diisopropyl ether] + CC1(C)[C@@H]2CC[C@@]1(CS(=O)(=O)[O-])C(=O)C2.CCCCCCCCCCCCCC[N+](CCCCCC)(CCCCCC)CCCCCC | 1 | 1.39 ± 0.09 | 1.77 ± 0.12 |
| 0.73 ± 0.05 | 0.71 ± 0.05 | C1CCCCC1 [cyclohexane] + CCCCCCCCCCCCCC[N+](CCCCCC)(CCCCCC)CCCCCC.C[C@H](O)C(=O)[O-] | 0.77 ± 0.05 | – | – |
| – | – | C#CCCCCC [1-heptyne] + CC1(C)[C@@H]2CC[C@@]1(CS(=O)(=O)[O-])C(=O)C2.CCCCCCCCCCCCCC[N+](CCCCCC)(CCCCCC)CCCCCC | 0.49 ± 0.04 | 0.78 ± 0.05 | 1.17 ± 0.07 |
| – | – | CCC(C)=O [butanone] + CC1(C)[C@@H]2CC[C@@]1(CS(=O)(=O)[O-])C(=O)C2.CCCCCCCCCCCCCC[N+](CCCCCC)(CCCCCC)CCCCCC | 0.43 ± 0.04 | 0.57 ± 0.04 | 0.73 ± 0.05 |
| – | – | CC1CCCCC1 [methylcyclohexane] + CC1(C)[C@@H]2CC[C@@]1(CS(=O)(=O)[O-])C(=O)C2.CCCCCCCCCCCCCC[N+](CCCCCC)(CCCCCC)CCCCCC | 0.75 ± 0.05 | 1 | 1.33 ± 0.09 |

| SMILES | activity coefficient (353.15 K) | activity coefficient (373.15 K) | activity coefficient (323.15 K) | activity coefficient (333.15 K) | activity coefficient (343.15 K) |
| --- | --- | --- | --- | --- | --- |
| Cc1ccccc1 [toluene] + CCCCCCCCCCCCCC[N+](CCCCCC)(CCCCCC)CCCCCC.C[C@H](O)C(=O)[O-] | 0.46 ± 0.04 | 0.48 ± 0.04 | 0.46 ± 0.04 | – | – |
| C[N+](=O)[O-] [nitromethane] + CCCCCCCCCCCCCC[N+](CCCCCC)(CCCCCC)CCCCCC.C[C@H](O)C(=O)[O-] | 0.31 ± 0.03 | 0.31 ± 0.03 | 0.32 ± 0.03 | – | – |
| Cc1ccccc1C [1,2-dimethylbenzene] + CCCCCCCCCCCCCC[N+](CCCCCC)(CCCCCC)CCCCCC.C[C@H](O)C(=O)[O-] | 0.55 ± 0.04 | 0.58 ± 0.04 | 0.53 ± 0.04 | – | – |
| ClC(Cl)(Cl)Cl [tetrachloromethane] + CCCCCCCCCCCCCC[N+](CCCCCC)(CCCCCC)CCCCCC.C[C@H](O)C(=O)[O-] | 0.26 ± 0.03 | 0.29 ± 0.03 | 0.24 ± 0.03 | – | – |
| c1ccncc1 [pyridine] + CCCCCCCCCCCCCC[N+](CCCCCC)(CCCCCC)CCCCCC.C[C@H](O)C(=O)[O-] | 0.34 ± 0.03 | 0.34 ± 0.03 | 0.34 ± 0.03 | – | – |
| Cc1cccc(C)c1 [1,3-dimethylbenzene] + CCCCCCCCCCCCCC[N+](CCCCCC)(CCCCCC)CCCCCC.C[C@H](O)C(=O)[O-] | 0.59 ± 0.04 | 0.6 ± 0.1 | 0.57 ± 0.04 | – | – |
| CCC[N+](=O)[O-] [1-nitropropane] + CCCCCCCCCCCCCC[N+](CCCCCC)(CCCCCC)CCCCCC.C[C@H](O)C(=O)[O-] | 0.34 ± 0.03 | 0.36 ± 0.03 | 0.33 ± 0.03 | – | – |
